According to US4206088A, “Solid conducting agent” (priority 1978, dated 1980):
Counter-ions that a name gives are not always drawn.

How the values were obtained:
[1] = as determined at 20° C.; cited from earlier work
[2] = volume resistivity; assay type: physicochemical; conditions: 23° C., 50% relative humidity
Description: In the present invention, it is very important that the above-mentioned protonically conductive solid should be adsorbed and supported on a finely divided inorganic solid acid.
Incidentally, in this and subsequent Examples, all the values of the volume resistivity were those as measured at a temperature of 23° C. and a relative humidity of 50%, unless otherwise indicated.

| Structure (SMILES) | First Stage Base Dissociation Constant (pKb) [1] | volume resistivity [2] |
| --- | --- | --- |
| c1ccc(-c2ccccn2)nc1 [2,2'-Bis-pyridine] | 9.88 |  |
| CN(C)C [Trimethylamine] | 4.24 |  |
| N=C(N)N [Guanidine sulfate] |  | 6.69×10^7 .OMEGA.-cm |
| CCN [Ethylamine] | 3.37 |  |
| C=CCN [Allylamine] | 3.51 |  |
| C1N2CN3CN1CN(C2)C3 [Hexamethylene-tetraamine succinate] |  | 2.05×10^11 .OMEGA.-cm |
| NN [Hydrazine] | 6.07 |  |
| CNN [Methylhydrazine] | 6.13 |  |
| C1CCNCC1 [Piperidine] | 2.78 |  |
| N=C(N)Nc1ccccc1 [Phenylguanidine] | 3.23 |  |
| C1CNCCN1.O=S(=O)(O)O [Piperazine sulfate] |  | 9.35×10^7 .OMEGA.-cm |
| Nc1ccncc1 [4-Aminopyridine] | 4.83 |  |
| C1CCNC1 [Pyrrolidine] | 2.73 |  |
| CCNCC [Diethylamine] | 3.02 |  |
| NC1CCCCC1 [Cyclohexylamine] | 3.36 |  |
| CCNN [Ethylhydrazine] | 6.29 |  |
| C1CNC1 [Trimethylene-imine] | 2.71 |  |
| C1CCNCC1.O=S(=O)(O)O [piperidine sulfate] |  | 3.54×10^7 .OMEGA.-cm |
| NCCN [Ethylenediamine sulfate] |  | 2.74×10^8 .OMEGA.-cm |
| CCCCCN [Amylamine] | 3.37 |  |
| CNC [Dimethylamine] | 3.13 |  |
| CN [Methylamine] | 3.38 |  |
| NO [Hydroxylamine] | 8.03 |  |
